Each structure is given as a SMILES string. Counter-ions that a name gives are not always drawn. Like-named read-outs stand apart in the source and are kept apart here.

Assay [1] has as its target PDE 4 (phosphodiesterase IV). Briefly: PDE 4 inhibiting effect (3H-cAMP hydrolysis, PDE 4 active fraction from Balb/c mouse liver). It is filed as biochemical. Particulars: PDE 4 fraction from Balb/c mice liver, 0.064 μM cAMP, 2 hours at 25° C., read-out: PDE4 IC50. The procedure: Methods for Evaluating the PDE 4 Inhibiting Effect
The PDE 4 (phosphodiesterase IV) inhibiting effect of the compounds of the present invention was performed by the following method, which was modified assay method described in Biochemical. […] That is, the livers obtained from three Balb/c mice (male, 12 weeks: obtainable from CLEA Japan, Inc.) were suspended with 30 mL of buffer solution B [20 mM of bis-tris, 5 mM of 2-mercaptoethanol, 2 mM of benzamidine, 2 mM of EDTA, 0.1 mM of 4-(2-aminoethyl)benzenesulfonyl hydrochloride, 50 mM of sodium acetate; pH 6.5], then homogenized by Polytron® homogenizer. The homogenate were centrifuged under 25,000×G for 10 minutes at 4° C. The supernatant was separated and thus obtained supernatant was further centrifuged under 100,000×G for 60 minutes at 4° C., and then filtrated with 0.2 μm filter to obtain the soluble fraction. • (2) The obtained soluble fraction was filled in equilibrium DEAE sepharose column (1×10 cm) with buffer solution B, and phosphodiesterase fractions were eluted by 120 mL of buffer solution B with linear gradient from 0.05 to 1M sodium acetate concentration. 5 mL each of 24 eluents were collected, and each eluents were examined for cyclic AMP metabolic activities of phosphodiesterase. […] After the reaction, suspension of Sephadex®-QAE in 10 mM of HEPES-Na (pH 7.0) was added to the reaction mixture, and the mixture was left at rest for 5 minutes.

Assay [2] has as its target PDE 7 (phosphodiesterase VII) (Homo sapiens (Human), UniProt Q13946). Briefly: PDE 7 inhibiting effect (3H-cAMP hydrolysis, PDE 7 active fraction from MOLT-4 cells). It is filed as biochemical. Particulars: PDE 7 fraction from MOLT-4 cells, 0.064 μM cAMP, 10 μM rolipram, 2 hours at 25° C., read-out: PDE7 IC50. The method, then: Methods for Evaluating the PDE 7 Inhibiting Effect
The PDE 7 (phosphodiesterase VII) inhibiting effect of the compounds of the present invention was performed by the following method, which was modified assay method described in Biochemical. Pharmacol. 48(6), 1219-1223 (1994). • (1) The active fraction of PDE 7 (phosphodiesterase VII) was obtained. That is, MOLT-4 (obtainable from ATCC as ATCC No. CRL-1582), which was cell line of human acute lymphoblastic lymphoma T cells, was incubated in RPMI1640 culture medium containing 10% fetal bovine serum to obtain 5×10^8 MOLT-4 cells. The cells were collected by centrifugation and suspended with 10 mL of buffer solution A [25 mM of tris-HCl, 5 mM of 2-mercaptoethanol, 2 mM of benzamidine, 2 mM of EDTA, 0.1 mM of 4-(2-aminoethyl)benzenesulfonyl hydrochloride; pH 7.5], then homogenized by Polytron® homogenizer. The homogenate were centrifuged under 25,000×G for 10 minutes at 4° C. The supernatant was separated and thus obtained supernatant was further centrifuged under 100,000×G for 60 minutes at 4° C., and then filtrated with 0.2 μm filter to obtain the soluble fraction. • (2) The obtained soluble fraction was filled in equilibrium HiTrap Q column (5 mL×2) with buffer solution A, and phosphodiesterase fractions were eluted by 300 mL of buffer solution A with linear gradient from 0 to 0.8 M NaCl concentration. 5 mL each of 60 eluents were collected, and each eluents were examined for cyclic AMP metabolic activities of phosphodiesterase. […] After the reaction, suspension of Sephadex®-QAE in 10 mM of HEPES-Na (pH 7.0) was added to the reaction mixture, and the mixture was left at rest for 5 minutes.

PDE 7 (phosphodiesterase VII), sequence (Q13946 whole entry): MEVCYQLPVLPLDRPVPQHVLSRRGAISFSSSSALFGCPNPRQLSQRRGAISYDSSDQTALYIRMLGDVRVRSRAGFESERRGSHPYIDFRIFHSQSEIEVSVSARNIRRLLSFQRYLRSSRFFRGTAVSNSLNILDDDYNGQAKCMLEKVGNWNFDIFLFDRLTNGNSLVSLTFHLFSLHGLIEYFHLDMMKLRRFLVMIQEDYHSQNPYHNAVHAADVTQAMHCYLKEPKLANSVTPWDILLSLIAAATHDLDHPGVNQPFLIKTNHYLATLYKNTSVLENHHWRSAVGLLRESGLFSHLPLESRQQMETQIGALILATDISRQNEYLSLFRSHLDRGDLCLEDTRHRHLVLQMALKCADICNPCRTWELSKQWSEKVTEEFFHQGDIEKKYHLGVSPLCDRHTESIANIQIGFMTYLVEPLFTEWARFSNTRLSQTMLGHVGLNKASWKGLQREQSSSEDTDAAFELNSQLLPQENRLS

One may read the IC50 as the concentration at which inhibition is half-maximal. Turning to `Cc1nn(C2CCCCC2)c2sc(C(=O)N[C@H]3CC[C@H](CO)CC3)cc12` [Example 206, 1-Cyclohexyl-N-[4-(hydroxymethyl)cyclohexyl]-3-methyl-1H-thieno[2,3-c]pyrazole-5-carboxamide], the IC50 in assay [1] was found to be 3800 nM; in assay [2], 50 nM.
On the same counts, the results for `Cc1nn(C2CCCCC2)c2sc(C(=O)N[C@H]3CC[C@H](C(=O)O)CC3)cc12` [Example 205, 4-{[(1-Cyclohexyl-3-methyl-1H-thieno[2,3-c]pyrazol-5-yl)carbonyl]-amino}cyclohexane carboxylic acid] are 14000 nM and 91 nM.
The corresponding values for `CC(=O)Nc1ccc(NC(=O)c2cc3c(C)nn(C4CCCCC4)c3s2)cc1` [Example 100, N-[4-(Acetylamino)phenyl]-1-cyclohexyl-3-methyl-1H-thieno[2,3-c]pyrazole-5-carboxamide] are above 30000 nM and 37 nM.
On to `CC(=O)N1CCN([C@H]2CC[C@H](NC(=O)c3cc4c(C)nn(C5CCCCC5)c4s3)CC2)CC1` [Example 190, N-[trans-4-(4-Acetyl-1-piperazinyl)cyclohexyl]-1-cyclohexyl-3-methyl-1H-thieno[2,3-c]pyrazole-5-carboxamide], for which the values for the IC50 in assay [1] and in assay [2] were 1700 nM and 3.5 nM, respectively.
On the same counts, the results for `Cc1nn(C2CCCCC2)c2sc(C(=O)N[C@H]3CC[C@H](N4CCCS4(=O)=O)CC3)cc12` [Example 274, 1-Cyclohexyl-N-[trans-(1,1-dioxide-2-isothiazolidinyl)cyclohexyl]-3-methyl-1H-thieno[2,3-c]pyrazole-5-carboxamide] are 1700 nM and 9.9 nM.
Consider `Cc1nn(C2CCCCC2)c2sc(C(=O)Nc3ccc4c(c3)CCN4C(=O)C(C)(C)C)cc12` [Example 25, 1-Cyclohexyl-N-[1-(2,2-dimethylpropanoyl)-2,3-dihydro-1H-indol-5-yl]-3-methyl-1H-thieno[2,3-c]pyrazole-5-carboxamide], for which the IC50 in assay [1] was determined as 6500 nM; in assay [2] it was 98 nM.
Regarding `Cc1nn(C2CCCCC2)c2sc(C(=O)Nc3ccc(N4CCN(C)CC4)cc3)cc12` [Example 107, 1-Cyclohexyl-3-methyl-N-[4-(4-methyl-1-piperazinyl)phenyl]-1H-thieno[2,3-c]pyrazole-5-carboxamide methanesulfonate], the IC50 is 2000 nM in assay [1] (methanesulfonate) and 17 nM in assay [2] (methanesulfonate).
On to `Cc1nn(C2CCCCC2)c2sc(C(=O)N[C@H]3CC[C@H](N4CCC(N(C)C)CC4)CC3)cc12` [Example 181, 1-Cyclohexyl-N-{trans-4-[4-(dimethylamino)-1-piperidinyl]-cyclohexyl}-3-methyl-1H-thieno[2,3-c]pyrazole-5-carboxamide], for which the IC50 in assay [1] came out at 860 nM; in assay [2], 8.6 nM.
Take `Cc1nn(C2CCCCC2)c2sc(C(=O)NC3CCN(C4CCOCC4)CC3)cc12` [Example 135, 1-Cyclohexyl-3-methyl-N-(1-tetrahydro-2H-pyran-4-yl-4-piperidinyl)-1H-thieno[2,3-c]pyrazole-5-carboxamide]: the values for the IC50 in assay [1] and in assay [2] were 7400 nM and 53 nM, respectively.
For `CNC(=O)c1ccc(NC(=O)c2cc3c(C)nn(C4CCCCC4)c3s2)cc1OC` [Example 152, 1-Cyclohexyl-N-{3-methoxy-4-[(methylamino)carbonyl]phenyl}-3-methyl-1H-thieno[2,3-c]pyrazole-5-carboxamide], the IC50 was 3000 nM in assay [1] and 85 nM in assay [2].
The corresponding values for `Cc1nn(C2CCCCC2)c2sc(C(=O)Nc3ccc(N4CCC(O)CC4)c(C(=O)O)c3)cc12` [Example 375] are 930 nM and 7.2 nM.
For the molecule `Cc1nn(C2CCCCC2)c2sc(C(=O)Nc3ccc(CN4CCOCC4)nc3)cc12` [Example 412, 1-Cyclohexyl-3-methyl-N-[6-(4-morpholinylmethyl)-3-pyridinyl]-1H-thieno[2,3-c]pyrazole-5-carboxamide methanesulfonate], the concentration for half-maximal inhibition (IC50) in assay [2] stood at 43 nM.
Same read-out and setting: the value for `Cc1nn(C2CCCCC2)c2sc(C(=O)Nc3ccc(N4CCC(O)CC4)c(F)c3)cc12` [Example 159, 1-Cyclohexyl-N-[3-fluoro-4-(4-hydroxy-1-piperidinyl)phenyl]-3-methyl-1H-thieno[2,3-c]pyrazole-5-carboxamide] was 35 nM.
As for `Cc1nn(C2CCCCC2)c2sc(C(=O)Nc3ccc(N4CCC(O)CC4)cc3)cc12` [Example 367, 1-Cyclohexyl-N-[4-(4-hydroxy-1-piperidinyl)phenyl]-3-methyl-1H-thieno[2,3-c]pyrazole-5-carboxamide methanesulfonate], the IC50 in assay [2] (methanesulfonate) was 20 nM.
For `Cc1nn(C2CCCCC2)c2sc(C(=O)Nc3ccc(N4CCC(O)CC4)c(F)c3)cc12` [Example 366, 1-Cyclohexyl-N-[3-fluoro-4-(4-hydroxy-1-piperidinyl)phenyl]-3-methyl-1H-thieno[2,3-c]pyrazole-5-carboxamide p-toluenesulfonate], the IC50 in assay [2] (p-toluenesulfonate) worked out at 49 nM.
Regarding `CNC(=O)[C@H]1CC[C@H](NC(=O)c2cc3c(C)nn(C4CCCCC4)c3s2)CC1` [Example 237, 1-Cyclohexyl-3-methyl-N-{4-[(methylamino)carbonyl]cyclohexyl}-1H-thieno[2,3-c]pyrazole-5-carboxamide], the IC50 in assay [2] came out at 7.8 nM.
Regarding `Cc1nn(C2CCCCC2)c2sc(C(=O)Nc3ccc(N4CCC(O)CC4)cc3)cc12` [Example 368, 1-Cyclohexyl-N-[4-(4-hydroxy-1-piperidinyl)phenyl]-3-methyl-1H-thieno[2,3-c]pyrazole-5-carboxamide p-toluenesulfonate], the IC50 in assay [2] (p-toluenesulfonate) amounted to 26 nM.
Take `Cc1nn(C2CCCCC2)c2sc(C(=O)Nc3ccc(N4CCC(O)CC4)cc3)cc12` [Example 114]: in assay [2], the IC50 was 21 nM.
On to `Cc1nn(C2CCCCC2)c2sc(C(=O)Nc3ccc(N4CCC(O)CC4)c(F)c3)cc12` [Example 365, 1-cyclohexyl-N-[3-fluoro-4-(4-hydroxy-1-piperidinyl)phenyl]-3-methyl-1H-thieno[2,3-c]pyrazole-5-carboxamide dimethanesulfonate], for which the IC50 in assay [2] (dimethanesulfonate) stood at 41 nM.
With `Cc1nn(C2CCCCC2)c2sc(C(=O)NC3CCN(S(=O)(=O)N(C)C)CC3)cc12` [Example 240, 1-Cyclohexyl-N-{1-[(dimethylamino)sulfonyl]-4-piperidinyl}-3-methyl-1H-thieno[2,3-c]pyrazole-5-carboxamide], the IC50 in assay [2] was found to be 41 nM.
Same read-out and setting: with `Cc1nn(C2CCCCC2)c2sc(C(=O)Nc3ccc(S(=O)(=O)N4CCN(CCO)CC4)cc3)cc12` [Example 79, 1-Cyclohexyl-N-(4-{[4-(2-hydroethyl)-1-piperazinyl]sulfonyl}-phenyl)-3-methyl-1H-thieno[2,3-c]pyrazole-5-carboxamide] the figure was 60 nM.
The same measure, in the same setting: the value for `Cc1nn(C2CCCCC2)c2sc(C(=O)N[C@@H]3CCN(C(=O)N(C)C)C3)cc12` [Example 323, 1-Cyclohexyl-N-{(3R)-1-[(dimethylamino)carbonyl]pyrrolidinyl}-3-methyl-1H-thieno[2,3-c]pyrazole-5-carboxamide HCl salt] was 71 nM; that for `Cc1nn(C2CCCCC2)c2sc(C(=O)N[C@H]3CCN(C(=O)N(C)C)C3)cc12` [Example 246, 1-Cyclohexyl-N-{(3S)-1-[(dimethylamino)carbonyl]pyrrolidinyl}-3-methyl-1H-thieno[2,3-c]pyrazole-5-carboxamide HCl salt] was 51 nM.

The record behind these values is patent US8901315B2, “Thienopyrazole derivative having PDE7 inhibitory activity” (Daiichi Sankyo Company, Limited, priority 2004, dated 2014).
